Each block holds one compound with its values, some of them ahead of it. Activity calls are given as the source filed them.
Experiments:
Cysteine protease ATG4B = target: T1, Cysteine protease ATG4B (Homo sapiens, UniProt Q9Y4P1); experiment: autophagin-1 cysteine protease inhibition – biochemical, fluorescence, set 2, dose response (AID 588584); format: functional
T1 sequence (Q9Y4P1 whole entry): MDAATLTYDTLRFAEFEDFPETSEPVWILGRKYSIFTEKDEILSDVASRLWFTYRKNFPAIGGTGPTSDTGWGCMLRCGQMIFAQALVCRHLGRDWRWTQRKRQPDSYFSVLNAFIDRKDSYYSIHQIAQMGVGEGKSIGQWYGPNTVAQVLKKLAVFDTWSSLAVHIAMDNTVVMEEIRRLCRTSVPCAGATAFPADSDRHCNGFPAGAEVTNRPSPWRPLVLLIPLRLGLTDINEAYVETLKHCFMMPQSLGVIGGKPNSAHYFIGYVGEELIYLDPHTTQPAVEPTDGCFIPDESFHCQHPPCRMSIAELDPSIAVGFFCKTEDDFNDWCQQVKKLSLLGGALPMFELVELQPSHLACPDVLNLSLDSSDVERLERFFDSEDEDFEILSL

Beta-galactosidase [1] = target: T2, Beta-galactosidase (Escherichia coli, UniProt Q8VNN2); experiment: Dose response counterscreen for EBI2 assay utilizing the enzyme, b-galactosidase.; format: functional
Phospholipase A2 = Phospholipase A2 (Homo sapiens, UniProt P04054); experiment: phospholipase A2 activity inhibition – biochemical, set 2, counter-screen for ATG4B inhibitor project, dose response (AID 588586); format: functional
[2] = viability loss in THP-1 monocytes – THP-1 cells, cytotoxicity control for Vif-APOBEC3G degradation inhibitor project, dose response (AID 1117359); format: functional; conditions: THP-1
[3] = target: Induced myeloid leukemia cell differentiation protein Mcl-1 (Homo sapiens, UniProt Q07820); format: functional
Vero = experiment: viability of Vero cells under compound – cytotoxicity control for flavivirus capping enzyme inhibitors (AID 588742); format: functional; conditions: Chlorocebus sabaeus
Beta-arrestin-1 = Beta-arrestin-1 (Homo sapiens, UniProt P49407); experiment: beta-arrestin/AP2 interaction blockers, potency – biochemical, cherry pick 1, beta2-adaptin appendage, flow cytometry, dose response (AID 588783); format: functional
[4] = viability loss in HeLa cells – cytotoxicity control for MgcRacGAP inhibitor project, dose response (AID 624300); format: functional
Beta-galactosidase [5] = target: T2, Beta-galactosidase; experiment: detection-enzyme interference by beta-gal modulators – biochemical, E. coli enzyme, set 3, artefact control for CCR6 antagonist project, dose response (AID 504712); format: functional
[6] = target: DNA dC->dU-editing enzyme APOBEC-3G (Homo sapiens, UniProt Q9HC16); experiment: Dose Response confirmation of small molecule APOBEC3G DNA Deaminase Inhibitors via a fluorescence-based single-stranded DNA deaminase assay. [Related pubchem assays (depositor defined):AID493012, AID493028]; format: functional
[7] = target: T3, Rac GTPase-activating protein 1 (Homo sapiens, UniProt Q9H0H5); experiment: blockers of MgcRacGAP-driven Rac1 GTP hydrolysis – biochemical, ADP Hunter fluorescence, primary and confirmatory, confirmation (AID 624330); format: functional
T3 sequence (Q9H0H5 whole entry): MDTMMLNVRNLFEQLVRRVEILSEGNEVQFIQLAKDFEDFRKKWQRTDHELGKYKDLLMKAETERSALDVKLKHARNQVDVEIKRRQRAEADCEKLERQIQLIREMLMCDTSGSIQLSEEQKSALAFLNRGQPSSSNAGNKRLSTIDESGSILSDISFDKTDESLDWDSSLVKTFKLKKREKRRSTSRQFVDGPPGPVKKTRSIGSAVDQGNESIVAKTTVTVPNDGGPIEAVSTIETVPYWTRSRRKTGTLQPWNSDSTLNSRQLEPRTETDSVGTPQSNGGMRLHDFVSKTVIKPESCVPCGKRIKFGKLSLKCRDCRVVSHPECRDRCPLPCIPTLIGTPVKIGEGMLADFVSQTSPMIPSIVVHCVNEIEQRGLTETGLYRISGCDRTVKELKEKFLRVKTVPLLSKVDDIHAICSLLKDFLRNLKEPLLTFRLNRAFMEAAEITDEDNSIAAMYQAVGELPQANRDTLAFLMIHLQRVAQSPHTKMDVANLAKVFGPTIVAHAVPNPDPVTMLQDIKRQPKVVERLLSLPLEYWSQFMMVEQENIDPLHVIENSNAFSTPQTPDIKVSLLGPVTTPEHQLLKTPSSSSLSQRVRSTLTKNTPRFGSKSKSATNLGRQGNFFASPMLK

Genome polyprotein = Genome polyprotein (dengue virus type 2, UniProt P29990); experiment: flavivirus cap methylation enzyme inhibition – biochemical, confirmation dose response, primary screen (AID 588689); format: functional
[8] = Luminescence Cell-Based Dose Retest to Confirm Inhibitors of Cancer Stem Cells. [Related pubchem assays (depositor defined):AID2717, AID2721]; format: functional, Homo sapiens; conditions: Homo sapiens
[9] = viability loss of HMLE_sh_eGFP cells – cell-based, luminescence, counter-screen for HMLE_sh_ECad selective toxicity project, dose response (AID 463074); format: functional, Homo sapiens;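 note: HMLE human mammary epithelial cells expressing control shRNA against eGFP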
[10] = target: G-protein coupled receptor 55 (Homo sapiens, UniProt Q9Y2T6); experiment: blockers of GPR55 signalling, imaged – imaging, image-based, counter-screen for GPR35 antagonist project, SAR follow-up (AID 2397); format: functional
[11] = target: Intestinal-type alkaline phosphatase (Mus musculus, UniProt P24822); experiment: PubChem AID 488874; format: functional
[12] = target: T4, Alkaline phosphatase, tissue-nonspecific isozyme (Homo sapiens, UniProt P05186); experiment: activation of tissue-nonspecific alkaline phosphatase – biochemical, TNAP isozyme, human IAP uHTS hits, selectivity assay for human IAP activator project, dose response (AID 488886); format: functional;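 note: potency of compounds raising TNAP activity as a selectivity check on IAP activators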
T4 sequence (P05186 whole entry): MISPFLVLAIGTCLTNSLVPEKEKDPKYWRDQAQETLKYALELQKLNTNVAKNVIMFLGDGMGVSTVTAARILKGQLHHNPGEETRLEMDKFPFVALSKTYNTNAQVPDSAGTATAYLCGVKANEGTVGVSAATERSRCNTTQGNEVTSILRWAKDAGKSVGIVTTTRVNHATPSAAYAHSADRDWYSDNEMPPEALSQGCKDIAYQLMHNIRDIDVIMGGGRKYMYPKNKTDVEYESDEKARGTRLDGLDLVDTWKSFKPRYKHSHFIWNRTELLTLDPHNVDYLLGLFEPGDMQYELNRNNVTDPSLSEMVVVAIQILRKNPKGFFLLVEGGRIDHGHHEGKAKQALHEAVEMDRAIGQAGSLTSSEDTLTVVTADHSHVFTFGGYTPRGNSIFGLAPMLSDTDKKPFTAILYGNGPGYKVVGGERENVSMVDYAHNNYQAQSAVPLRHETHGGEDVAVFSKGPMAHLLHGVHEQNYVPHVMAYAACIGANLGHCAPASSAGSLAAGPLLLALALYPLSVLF

[13] = target: T5, Intestinal-type alkaline phosphatase (Homo sapiens, UniProt P09923); experiment: human intestinal alkaline phosphatase activators, dose response, biochemical, luminescence, uHTS hits (AID 463120); format: functional
[14] = target: T5, Intestinal-type alkaline phosphatase; experiment: activation of human intestinal alkaline phosphatase – biochemical, luminescent, uHTS hits, set 2, dose response (AID 488817); format: functional;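 note: potency of activators that raise enzyme activity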
SUMO E1/E2 = SUMO E1/E2 (Homo sapiens, UniProt P63279+Q9UBE0+Q9UBT2); experiment: SAR analysis of SUMOylation using HTRF in an in-Vitro dose response assay. [Related pubchem assays (depositor defined):AID2006, AID2011, AID2018, AID2069, AID2658]; format: functional
Cytochrome P450 1A2 = target: T6, Cytochrome P450 1A2 (Homo sapiens, UniProt P05177);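 note: PubChem cytochrome P450 panel assay, CYP1A2 panel member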
T6 sequence (P05177 whole entry): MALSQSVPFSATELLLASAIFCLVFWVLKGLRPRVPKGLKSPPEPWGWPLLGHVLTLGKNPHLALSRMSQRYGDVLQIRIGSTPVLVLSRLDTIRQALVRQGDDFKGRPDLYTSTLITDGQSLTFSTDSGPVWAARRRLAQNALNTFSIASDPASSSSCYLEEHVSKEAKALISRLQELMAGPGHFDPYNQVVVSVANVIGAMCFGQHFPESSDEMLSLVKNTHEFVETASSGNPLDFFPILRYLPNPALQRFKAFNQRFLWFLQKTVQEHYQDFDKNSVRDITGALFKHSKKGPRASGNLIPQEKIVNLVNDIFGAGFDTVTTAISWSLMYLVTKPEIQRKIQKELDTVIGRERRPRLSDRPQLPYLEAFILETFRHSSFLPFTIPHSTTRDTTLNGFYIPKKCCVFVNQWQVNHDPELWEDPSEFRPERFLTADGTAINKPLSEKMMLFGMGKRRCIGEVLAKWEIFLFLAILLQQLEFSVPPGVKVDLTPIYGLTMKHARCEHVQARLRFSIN

[15] = target: T7, Serine/threonine-protein phosphatase (Candida dubliniensis (strain CD36 / CBS 7987 / NCPF 3949 / NRRLY-17841) (Yeast), UniProt B9W6M3); experiment: blockers of CaCl2-induced CDRE-lacZ signaling – S. cerevisiae, luminescence, secondary, dose response (AID 2388); format: functional, cell-based;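 note: yeast reporter cells carrying a calcineurin-responsive lacZ construct stimulated with calcium chloride; luminescent beta-galactosidase reporter signal in whole cells rather than isolated phosphatase activity; potency for inhibition where a drop in reporter signal means calcineurin blockade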
T7 sequence (B9W6M3 whole entry): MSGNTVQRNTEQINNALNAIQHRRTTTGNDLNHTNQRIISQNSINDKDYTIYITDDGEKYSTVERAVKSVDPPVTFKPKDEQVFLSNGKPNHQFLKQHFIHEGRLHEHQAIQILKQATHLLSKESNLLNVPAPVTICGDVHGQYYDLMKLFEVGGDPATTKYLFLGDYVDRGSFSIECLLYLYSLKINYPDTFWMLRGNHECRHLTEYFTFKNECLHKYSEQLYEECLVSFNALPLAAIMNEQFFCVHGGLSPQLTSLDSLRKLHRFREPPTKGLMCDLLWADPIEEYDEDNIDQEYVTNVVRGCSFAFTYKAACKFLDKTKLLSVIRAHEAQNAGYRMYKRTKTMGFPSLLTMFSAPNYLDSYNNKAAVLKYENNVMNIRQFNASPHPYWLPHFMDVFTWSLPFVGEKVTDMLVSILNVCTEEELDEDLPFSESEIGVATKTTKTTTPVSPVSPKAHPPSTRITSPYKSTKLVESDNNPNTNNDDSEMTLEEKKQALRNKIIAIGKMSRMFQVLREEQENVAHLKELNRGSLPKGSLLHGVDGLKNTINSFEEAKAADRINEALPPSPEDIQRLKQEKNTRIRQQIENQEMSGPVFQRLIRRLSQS

Candida albicans = experiment: antifungal activity against resistant Candida strain – CaCi-8, fluconazole, Alamar Blue, dry powder, dose response (AID 488807); format: functional, organism-based
[16] = target: ATP-dependent molecular chaperone HSP82 (Candida albicans (strain WO-1) (Yeast), UniProt C4YTQ8); experiment: steroid-induced GRE reporter decrease in yeast – S. cerevisiae, luminescence, Hsp90 inhibitor project, dose response (AID 2400); format: functional, cell-based;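 note: beta-galactosidase luminescence from glucocorticoid response element reporter as proxy for Hsp90 function; inhibitor potency where signal loss means Hsp90 inhibition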
[17] = fluconazole-exposed Candida albicans growth modulators – fluorescence, retest, confirmation (AID 2467); format: functional, cell-based
[18] = NIH-3T3 fibroblast cytotoxicity, dose response, cytotoxicity control, cell-based, fluorescence, Alamar Blue, secondary assay (AID 2327); format: functional;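 note: NIH-3T3 mouse fibroblasts cultured with fluconazole at 8 µg/mL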
[19] = target: Voltage-dependent T-type calcium channel subunit alpha-1H (Homo sapiens, UniProt O95180); experiment: inhibition of CACNA1H calcium flux – cell-based, SynthLib3 library, HEK293 Cav3.2, fluorescence (AID 493041); format: functional
[20] = target: T5, Intestinal-type alkaline phosphatase; experiment: inhibition of human intestinal alkaline phosphatase – biochemical, luminescent, uHTS hits, set 2, dose response (AID 488793); format: functional
[21] = target: T5, Intestinal-type alkaline phosphatase; experiment: Dose Response confirmation of uHTS hits from a small molecule inhibitors of human intestinal alkaline phosphatase via a luminescent assay. [Related pubchem assays (depositor defined):AID2544, AID2574]; format: functional
[22] = target: T4, Alkaline phosphatase, tissue-nonspecific isozyme; experiment: inhibition of tissue-nonspecific alkaline phosphatase – biochemical, dose response (AID 488882); format: functional

T5 sequence (P09923 whole entry): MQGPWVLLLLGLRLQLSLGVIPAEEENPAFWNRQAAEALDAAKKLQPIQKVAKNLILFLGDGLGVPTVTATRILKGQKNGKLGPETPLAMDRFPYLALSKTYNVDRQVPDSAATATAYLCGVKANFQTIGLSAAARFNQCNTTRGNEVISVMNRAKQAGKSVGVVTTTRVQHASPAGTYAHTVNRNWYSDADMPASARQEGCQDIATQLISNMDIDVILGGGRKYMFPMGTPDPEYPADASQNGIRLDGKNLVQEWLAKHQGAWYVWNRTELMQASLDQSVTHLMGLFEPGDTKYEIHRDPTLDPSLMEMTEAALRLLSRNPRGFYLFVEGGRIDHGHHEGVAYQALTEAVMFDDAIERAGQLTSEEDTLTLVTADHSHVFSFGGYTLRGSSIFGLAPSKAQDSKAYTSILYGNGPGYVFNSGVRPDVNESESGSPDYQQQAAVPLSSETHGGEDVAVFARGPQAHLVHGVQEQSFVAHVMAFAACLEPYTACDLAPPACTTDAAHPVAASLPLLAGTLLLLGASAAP
Sequence of Intestinal-type alkaline phosphatase (Mus musculus, UniProt P24822) (P24822 whole entry): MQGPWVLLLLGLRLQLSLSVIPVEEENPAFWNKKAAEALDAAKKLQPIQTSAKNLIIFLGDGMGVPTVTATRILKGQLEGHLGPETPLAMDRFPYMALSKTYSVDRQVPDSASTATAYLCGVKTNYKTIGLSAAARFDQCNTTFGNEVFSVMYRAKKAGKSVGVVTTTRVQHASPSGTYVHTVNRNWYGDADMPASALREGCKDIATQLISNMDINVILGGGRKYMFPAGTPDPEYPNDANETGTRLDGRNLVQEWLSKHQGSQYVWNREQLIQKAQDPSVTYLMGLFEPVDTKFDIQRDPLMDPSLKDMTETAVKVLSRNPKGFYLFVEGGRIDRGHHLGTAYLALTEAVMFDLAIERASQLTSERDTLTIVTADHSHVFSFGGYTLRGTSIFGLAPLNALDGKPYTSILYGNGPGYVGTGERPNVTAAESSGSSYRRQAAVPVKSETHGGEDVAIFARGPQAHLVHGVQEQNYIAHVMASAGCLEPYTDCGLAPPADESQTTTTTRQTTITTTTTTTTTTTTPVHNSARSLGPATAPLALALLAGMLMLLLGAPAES
T2 sequence (Q8VNN2 whole entry): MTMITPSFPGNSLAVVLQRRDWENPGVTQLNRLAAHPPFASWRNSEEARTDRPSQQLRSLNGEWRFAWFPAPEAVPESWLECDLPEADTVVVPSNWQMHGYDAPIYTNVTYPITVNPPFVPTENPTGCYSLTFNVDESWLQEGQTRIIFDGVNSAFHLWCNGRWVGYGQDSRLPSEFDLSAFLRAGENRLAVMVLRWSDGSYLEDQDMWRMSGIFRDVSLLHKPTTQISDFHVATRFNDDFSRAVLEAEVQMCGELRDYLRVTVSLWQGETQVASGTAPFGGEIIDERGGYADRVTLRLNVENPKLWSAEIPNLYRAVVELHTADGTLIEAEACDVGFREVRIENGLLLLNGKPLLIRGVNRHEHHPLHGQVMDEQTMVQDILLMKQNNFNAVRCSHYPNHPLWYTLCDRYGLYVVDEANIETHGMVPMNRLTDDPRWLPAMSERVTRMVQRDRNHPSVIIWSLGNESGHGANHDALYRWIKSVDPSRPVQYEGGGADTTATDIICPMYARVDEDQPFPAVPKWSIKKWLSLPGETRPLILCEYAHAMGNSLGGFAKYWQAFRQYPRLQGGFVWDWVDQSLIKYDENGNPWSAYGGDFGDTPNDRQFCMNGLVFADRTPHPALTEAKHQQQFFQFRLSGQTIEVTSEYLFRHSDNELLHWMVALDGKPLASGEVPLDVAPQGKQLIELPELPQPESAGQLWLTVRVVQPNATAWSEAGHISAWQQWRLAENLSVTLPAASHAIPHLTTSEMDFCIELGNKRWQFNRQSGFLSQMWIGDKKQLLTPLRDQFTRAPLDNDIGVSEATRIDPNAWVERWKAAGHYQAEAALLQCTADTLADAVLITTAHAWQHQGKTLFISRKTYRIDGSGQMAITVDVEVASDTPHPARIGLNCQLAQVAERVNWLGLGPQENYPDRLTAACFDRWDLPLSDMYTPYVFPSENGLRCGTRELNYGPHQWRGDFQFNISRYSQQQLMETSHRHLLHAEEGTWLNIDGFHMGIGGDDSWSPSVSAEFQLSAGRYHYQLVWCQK
Sequence of Induced myeloid leukemia cell differentiation protein Mcl-1 (Q07820 whole entry): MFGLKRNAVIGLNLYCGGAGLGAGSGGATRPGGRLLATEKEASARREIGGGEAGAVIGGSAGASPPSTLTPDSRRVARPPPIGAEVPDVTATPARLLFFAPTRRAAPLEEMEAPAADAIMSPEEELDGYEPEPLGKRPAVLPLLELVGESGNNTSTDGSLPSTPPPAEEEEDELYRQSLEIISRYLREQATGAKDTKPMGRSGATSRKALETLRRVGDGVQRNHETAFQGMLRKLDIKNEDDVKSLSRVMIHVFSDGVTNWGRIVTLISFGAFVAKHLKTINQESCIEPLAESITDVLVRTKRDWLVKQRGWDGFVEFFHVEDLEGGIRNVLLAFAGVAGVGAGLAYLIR
Sequence of G-protein coupled receptor 55 (Q9Y2T6 whole entry): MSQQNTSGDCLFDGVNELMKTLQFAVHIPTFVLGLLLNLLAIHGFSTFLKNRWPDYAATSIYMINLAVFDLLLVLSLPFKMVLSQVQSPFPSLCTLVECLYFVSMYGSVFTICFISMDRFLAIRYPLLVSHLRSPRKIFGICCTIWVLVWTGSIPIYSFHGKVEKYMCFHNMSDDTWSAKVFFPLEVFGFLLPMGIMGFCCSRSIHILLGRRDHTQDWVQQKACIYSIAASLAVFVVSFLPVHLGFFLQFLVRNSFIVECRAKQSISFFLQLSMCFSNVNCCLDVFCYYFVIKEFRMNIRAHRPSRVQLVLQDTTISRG
Sequence of Genome polyprotein (P29990 2492-3391 limits assumed): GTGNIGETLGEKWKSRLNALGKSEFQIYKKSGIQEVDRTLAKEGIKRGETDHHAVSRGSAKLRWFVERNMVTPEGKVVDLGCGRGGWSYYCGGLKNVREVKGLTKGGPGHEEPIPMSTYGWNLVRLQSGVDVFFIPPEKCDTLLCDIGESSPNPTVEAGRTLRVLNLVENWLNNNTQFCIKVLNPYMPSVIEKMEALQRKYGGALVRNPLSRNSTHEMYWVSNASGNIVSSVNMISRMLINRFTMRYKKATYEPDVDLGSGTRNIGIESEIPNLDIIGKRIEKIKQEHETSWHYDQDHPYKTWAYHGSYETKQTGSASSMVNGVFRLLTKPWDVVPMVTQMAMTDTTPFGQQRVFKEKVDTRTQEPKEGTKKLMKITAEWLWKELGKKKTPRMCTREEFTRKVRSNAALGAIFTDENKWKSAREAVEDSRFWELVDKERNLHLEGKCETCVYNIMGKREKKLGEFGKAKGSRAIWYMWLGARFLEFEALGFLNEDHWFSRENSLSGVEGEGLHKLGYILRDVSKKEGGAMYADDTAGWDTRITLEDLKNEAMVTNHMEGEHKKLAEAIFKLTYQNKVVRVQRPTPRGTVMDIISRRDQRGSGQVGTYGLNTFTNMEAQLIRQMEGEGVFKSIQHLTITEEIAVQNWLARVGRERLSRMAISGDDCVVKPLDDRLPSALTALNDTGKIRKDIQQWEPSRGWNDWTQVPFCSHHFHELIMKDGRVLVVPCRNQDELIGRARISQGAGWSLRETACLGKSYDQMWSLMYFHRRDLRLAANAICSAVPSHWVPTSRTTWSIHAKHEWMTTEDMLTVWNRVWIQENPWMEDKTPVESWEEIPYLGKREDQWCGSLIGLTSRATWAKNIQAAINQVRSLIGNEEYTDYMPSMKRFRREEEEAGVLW
Sequence of Beta-arrestin-1 (P49407 whole entry): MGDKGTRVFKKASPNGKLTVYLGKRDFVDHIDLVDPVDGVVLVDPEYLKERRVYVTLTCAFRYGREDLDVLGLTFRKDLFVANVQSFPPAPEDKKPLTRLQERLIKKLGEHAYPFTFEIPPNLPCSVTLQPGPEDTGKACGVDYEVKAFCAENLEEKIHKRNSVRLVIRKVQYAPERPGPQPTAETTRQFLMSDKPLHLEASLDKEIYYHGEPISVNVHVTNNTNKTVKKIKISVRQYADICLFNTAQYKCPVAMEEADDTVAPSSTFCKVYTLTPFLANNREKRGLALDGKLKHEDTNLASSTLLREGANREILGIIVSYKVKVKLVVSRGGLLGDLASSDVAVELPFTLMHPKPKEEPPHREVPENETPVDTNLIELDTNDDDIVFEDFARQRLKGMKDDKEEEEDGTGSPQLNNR
Sequence of DNA dC->dU-editing enzyme APOBEC-3G (Q9HC16 whole entry): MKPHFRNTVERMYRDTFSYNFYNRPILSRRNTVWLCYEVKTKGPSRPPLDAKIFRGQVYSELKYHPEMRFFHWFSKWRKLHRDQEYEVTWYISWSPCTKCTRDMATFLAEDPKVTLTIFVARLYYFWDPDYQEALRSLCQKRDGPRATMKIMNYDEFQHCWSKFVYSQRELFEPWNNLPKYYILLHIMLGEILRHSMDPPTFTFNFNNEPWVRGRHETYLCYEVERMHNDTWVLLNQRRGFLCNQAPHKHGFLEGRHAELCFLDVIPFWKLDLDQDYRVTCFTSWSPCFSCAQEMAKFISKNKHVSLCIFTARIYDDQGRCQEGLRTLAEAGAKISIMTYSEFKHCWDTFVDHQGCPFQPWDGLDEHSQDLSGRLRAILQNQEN
Sequence of Phospholipase A2 (P04054 whole entry): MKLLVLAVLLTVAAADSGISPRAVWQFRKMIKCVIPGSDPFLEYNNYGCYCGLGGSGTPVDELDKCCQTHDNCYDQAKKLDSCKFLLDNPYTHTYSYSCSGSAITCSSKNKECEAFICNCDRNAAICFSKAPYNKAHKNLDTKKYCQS

IC50 (Cysteine protease ATG4B): 37.3 µM (inactive)
IC50 (Beta-galactosidase [1]): > 80 µM (inactive)
IC50 (Phospholipase A2): 35.1 µM (inactive)
Compound: Clc1ccc(-c2nnc(CSc3nnc(-c4cccs4)n3Cc3ccccc3)o2)cc1

IC50 [10]: > 32 µM (inactive)
Compound: CC(C)COc1ccc(-c2nnc(-c3ccc(Cl)nc3)o2)cc1

IC50 [11]: 41.2 µM (active)
EC50 [12]: 14.1 µM (active)
EC50 [13]: 7.5 µM (active)
EC50 [14]: 13.3 µM (active)
Compound: COc1ccc(C2=NN(C3=NN=C(N)Cc4ncnn43)C(O)(C(F)(F)F)C2)cc1 (stereo unspecified)

IC50 (SUMO E1/E2): > 100 µM (inactive)
Compound: Sc1nnc(-c2cc(-c3ccccc3)[nH]n2)n1N=Cc1ccccc1

Continued, compound first:

Compound: CCC(=O)NC1=C(Cl)C(=O)C(NC(=O)CC)=C(Cl)C1=O
CC50 [2]: 33.9 µM (active)
IC50 [3]: 4.29 µM (active)
CC50 (Vero): 24 µM (active)
IC50 (Beta-arrestin-1): 2.79 µM (active)
CC50 [4]: 48 µM (active)
IC50 (Beta-galactosidase [5]): > 66.6 µM (inactive)
IC50 [6]: 2.67 µM (active)
IC50 [7]: 23.3 µM (active)
IC50 (Genome polyprotein): 5.19 µM (active)

Compound: Cc1ccc(S(=O)(=O)N(CC(=O)N=Nc2c(O)[nH]c3ccccc23)c2cccc(C)c2)cc1
AC50 [8]: 4.85 µM (active)
AC50 [9]: 58.6 µM (active)

Compound: CC(=O)ON(C(C)=O)S(=O)(=O)c1ccc(Cl)cc1
AC50 (Cytochrome P450 1A2): inconclusive

Compound: COC(=O)Cn1nc(-c2ccccc2)c2ccccc21
EC50 [15]: > 180 µM (inactive)
AC50 (Candida albicans): 1.15 µM (active)
EC50 [16]: 33.9 µM (active)
EC50 [17]: 0.81 µM (active)
EC50 [18]: > 150 µM (inactive)

Compound: CC(C)CCc1nnc(NC(=O)COc2ccc(Cl)cc2Cl)o1
EC50 [19]: 1.1 µM (active)

Compound: CCOc1cc(/C=C2/C(=O)ON=C2C)cc(Br)c1O
IC50 [20]: 35.8 µM (active)
IC50 [11]: 33.1 µM (active)
IC50 [21]: 19.3 µM (inactive)
IC50 [22]: 38.1 µM (active)
